Data taken from article PMC8280143, “A novel dephosphorylation targeting chimera selectively promoting tau removal in tauopathies” (Signal Transduction and Targeted Therapy, 2021).
Entries after “also recorded” stand apart in the source; their conditions may differ.

What was measured:
human tau = assay: Fluorescence polarization competing assay, tau; assay type: binding; conditions: 2.5 μM tau, 0.1 μM FITC-labeled DEPTAC; 37 °C, 30 min
Protocol: Purified human tau and PP2A-Bα (PPP2R1A) were obtained from AtaGenix (Wuhan, China), and concentrated using ultrafiltration tubes (Beyotime). In basic binding assays, tau or PP2A-Bα was aliquoted into serial dilutions with a buffer containing 20 mM Tris-HCl, 150 mM NaCl, and 0.5 mM 1,4-Dithiothreitol (pH 7.4), and incubated with 0.1 μM FITC-labeled DEPTAC, FITC-labeled control peptide and FITC (9:1 vol/vol), respectively, in a black 384-well plates (Corning) under 37 °C for 30 min. In competition binding assays, a mixture of 2.5 μM tau or PP2A-Bα and 0.1 μM FITC-labeled DEPTAC were incubated with increasing amounts of unlabeled-DEPTAC under 37 °C for 30 min. Fluorescence intensity was measured by a Biotek Synergy 2 microplate reader with the wavelengths of 480 nm (60) (Ex)/560 nm (40) (Em). The polarization measurements were corrected for background contributions to the measured intensity by subtracting the parallel and perpendicular intensity readings by the vehicle-only wells from the intensity readings for each data point. Fluorescence polarization (P) was calculated by the formula P = (I║ − I┴) / (I║ + I┴), where I║ was the intensity of emitted light polarized parallel to the excitation light, and I┴ was the intensity of emitted light polarized perpendicular to the excitation light.

tau and PP2A-B = assay: Co-immunoprecipitation of DEPTAC with tau and PP2A-B in primary neurons; assay type: cell-based; conditions: primary cultured rat neurons
Protocol: Primary hippocampal neurons were prepared from E12–E15 days SD rat embryos. Briefly, pregnant rats were acutely executed, hippocampus was dissected on ice and gently minced in DME/F12 (Hyclone) then suspended in 0.125% (vol/vol) trypsin solution at 37 °C for 20 min. Enzymatic activity was stopped by fetal bovine serum. Neurons were initially kept in 10% FBS-containing DME/F12 for 4–6 h, and subsequently cultured in Neurobasal (Hyclone) with 2% B27, 1% glutamax and 1% penicillin–streptomycin (Thermo Fisher Scientific) in dishes pre-coated with 100 μg/mL poly-D-lysine. Serum was gradually removed by replacing half of the medium for each time within the following 2 days. Especially, to inhibit the proteasome-dependent proteolysis, the cultured hippocampal neurons were treated with 5 μM MG132 for 5 h before harvest.
For co-immunoprecipitation, cultured cells were lysed on ice with RIPA buffer for 10 min containing 1:100 PMSF. Protein samples were incubated with protein G agarose (Beyotime) at 4 °C for 2 h, and then centrifuged for 5 min (4 °C, 12,000 rpm). Supernatants were subsequently incubated with specified antibodies and protein G agarose overnight at 4 °C. […] Immunoprecipitants were subsequently analyzed through Western blotting.

pS396-tau = pS396-tau immunostaining in the DG of Tau368 mice; assay type: in vivo, mouse; conditions: DEPTAC for a consecutive month after stopping dox; **p < 0.01, n = 4–5 mice
Protocol: For 2-month male C57BL/6 mice, 10 mM FITC-labeled or unlabeled-DEPTAC were directly injected through the tail vein or lateral ventricle for the evaluation of BBB-penetrability. For 9-month 3×Tg AD mice or Tau368 (20–30 g body weight), unlabeled-DEPTAC (5 mM, 1 μL for each time) was delivered for once into the lateral ventricle through direct stereotaxic injection, or repeatedly administrated through guiding cannulas (RWD, Shenzhen, China) implanted into the lateral ventricle once every 3 days for a consecutive month to test its dephosphorylation efficiency. Mice were restricted in a custom designed device and stayed awake during drug administration, and sacrificed at 24 h post the single or last DEPTAC administration.
Cultured neurons were fixed with 4% paraformaldehyde for 15 min. For animal experiments, mice were anesthetized with 1% pentobarbital sodium and intracardially perfused with normal saline followed by 4% paraformaldehyde (in 0.1 M phosphate buffer, pH 7.4). Mice brains were removed, post-fixed in 4% PFA for 12 h, and then cryoprotected in 20% and 30% sucrose solutions in turn. Fifty micrometer brain sections were sliced using a cryostat microtome (Leica). […]

Substance: (1) YQQYQDATADEQG, originates from the porcine β-tubulin 422–434 for recognizing and binding tau proteins.[5],[6] (2) GSGS, a linker for increasing the flexibility of the peptide.[15] (3) KKVAVVRTPPKSP, for recruiting PP2A-Bα,[16] and (4) RRRRRRRR [DEPTAC, DEPhosphorylation TArgeting Chimera; 38 amino acid residues, C185H314N72O56]
- reversal of FITC-DEPTAC/tau polarization by increased amount of unlabeled-DEPTAC (human tau): both were reversed
- total tau level over time (tau and PP2A-B; 6–24 h of post-DEPTAC treatment): time-dependent decrease; also recorded: gradual decrease
- co-immunoprecipitation of DEPTAC with tau and PP2A-B (tau and PP2A-B; DEPTAC antibody, 24 h / 12 h (b9)): detected; also recorded: confirmed
- level of pS396-tau immunostaining in the DG (pS396-tau): ameliorated
